Target: Transthyretin (Homo sapiens) (UniProt P02766)
Assay: Stabilization of wild type human transthyretin expressed in Escherichia coli BL21(DE3) Star assessed as fibril formation at 50 uM pre-incubated with transthyretin before amyloid beta (1 to 42) addition by ThT fluorescence assay

Activity [%] | Structure (SMILES)
26 | O=C(O)c1cc(-c2ccc(F)cc2F)ccc1O
24 | O=C(O)c1ccc2nc(-c3cc(Cl)cc(Cl)c3)oc2c1
